In one data set the target is T1, SaUspA (Sulfolobus acidocaldarius, UniProt Q4JAC8).
T1 construct: gene Saci_0887
T1 sequence (Q4JAC8 1-128): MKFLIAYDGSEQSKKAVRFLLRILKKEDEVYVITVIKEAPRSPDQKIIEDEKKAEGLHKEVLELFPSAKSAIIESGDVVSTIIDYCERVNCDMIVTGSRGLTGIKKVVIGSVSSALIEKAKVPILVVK
The data set is described as follows: Ni-NTA co-purification with PP2A-his, Western blot. The settings on record: 1 mM ATP, 5 mM MgCl2, pH 8; ATP increases binding to PP2A. (In western blotting, separated proteins are transferred to a membrane and probed.)

Another data set concerns the target T2, ArnD (Sulfolobus acidocaldarius, UniProt Q4J879).
T2 construct: gene Saci_1694; purified kinase; expression in E. coli Rosetta (DE3)/pLysS, construct details in earlier work
T2 sequence (Q4J879 1-413): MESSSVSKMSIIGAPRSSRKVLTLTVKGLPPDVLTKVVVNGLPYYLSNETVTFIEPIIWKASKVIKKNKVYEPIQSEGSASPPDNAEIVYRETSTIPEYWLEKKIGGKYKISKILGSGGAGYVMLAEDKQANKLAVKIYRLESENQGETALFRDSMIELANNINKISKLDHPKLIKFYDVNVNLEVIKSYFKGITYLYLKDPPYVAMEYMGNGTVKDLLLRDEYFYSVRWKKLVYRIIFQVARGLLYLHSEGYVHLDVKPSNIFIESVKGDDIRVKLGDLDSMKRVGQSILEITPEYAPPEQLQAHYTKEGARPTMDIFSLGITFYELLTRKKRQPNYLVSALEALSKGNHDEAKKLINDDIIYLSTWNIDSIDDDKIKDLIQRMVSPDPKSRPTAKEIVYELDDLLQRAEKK
The data set is described as follows: in vitro phosphorylation, autophosphorylation. Format: biochemical. Particulars: 1 mM MnCl2, pH 8, 55°C; labelled compound.

Another data set has as its target T3, ArnC (Sulfolobus acidocaldarius, UniProt Q4J9J0).
T3 construct: gene Saci_1193; purified kinase; expression in E. coli Rosetta (DE3)/pLysS, construct details in earlier work
T3 sequence (Q4J9J0 1-663): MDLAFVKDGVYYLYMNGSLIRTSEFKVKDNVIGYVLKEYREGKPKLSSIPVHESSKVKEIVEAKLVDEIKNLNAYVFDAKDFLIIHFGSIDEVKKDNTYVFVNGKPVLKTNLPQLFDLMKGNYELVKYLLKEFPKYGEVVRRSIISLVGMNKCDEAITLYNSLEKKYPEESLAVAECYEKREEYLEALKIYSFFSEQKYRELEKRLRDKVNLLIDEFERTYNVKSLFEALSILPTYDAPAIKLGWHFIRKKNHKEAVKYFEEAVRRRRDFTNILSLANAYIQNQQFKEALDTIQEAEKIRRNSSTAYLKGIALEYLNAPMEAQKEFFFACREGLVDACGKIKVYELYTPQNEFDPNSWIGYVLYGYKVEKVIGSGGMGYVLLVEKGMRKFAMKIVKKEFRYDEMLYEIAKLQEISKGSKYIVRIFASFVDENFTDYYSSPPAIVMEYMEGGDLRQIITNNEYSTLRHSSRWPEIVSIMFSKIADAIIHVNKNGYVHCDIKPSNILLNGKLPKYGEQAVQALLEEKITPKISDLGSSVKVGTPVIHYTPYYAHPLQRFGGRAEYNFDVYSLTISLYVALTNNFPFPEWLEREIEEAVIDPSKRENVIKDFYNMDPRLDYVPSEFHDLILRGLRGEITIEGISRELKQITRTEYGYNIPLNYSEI
Description: in vitro phosphorylation, autophosphorylation. Format: biochemical. The settings on record: 1 mM MnCl2, pH 8, 55°C; labelled compound.

Data set [1] deals with the molecule itself. The data set is described as follows: SEC; purified Strep II-tagged SaUspA on a Superdex 200 10/300 GL column in lysis buffer (50 mM Tris pH8, 150 mM NaCl); standards of 158, 44, 17 and 1.35 kDa; peak at about 30 kDa against 16.2 kDa for the monomer.

The results in this text go back to publication PMC7693658, “SaUspA, the Universal Stress Protein of Sulfolobus acidocaldarius Stimulates the Activity of the PP2A Phosphatase and Is Involved in Growth at High Salinity” (Frontiers in Microbiology, 2020).

As usually defined, the stoichiometry N is the number of molecules, sites or subunits per partner or assembly.

Regarding `Nc1ncnc2c1ncn2[C@@H]1O[C@H](COP(=O)(O)OP(=O)(O)OP(=O)(O)O)[C@@H](O)[C@H]1O` [ATP], on SaUspA, the “Ni-NTA co-purification with PP2A-his, Western blot” value is given as “This indicated that ATP-binding of SaUspA enhanced its interaction with PP2A”. In addition, the “in vitro phosphorylation, autophosphorylation” value at ArnD is “autophosphorylation was detected for both ArnC and ArnD”; at ArnC it was “autophosphorylation was detected for both ArnC and ArnD”.

B1: C-terminally StrepII-tagged SaUspA (universal stress protein UspA of Sulfolobus acidocaldarius, Saci_0887) (natural protein, UniProt Q4JAC8 1-128, looked up)
chain: T1 sequence (Q4JAC8 1-128)
notes: SaUspA (UspA, Saci_0887), universal stress protein of Sulfolobus acidocaldarius; printed molecular weight 16.2 kDa; Made nucleotide free by ammonium sulfate precipitation; in some samples pre-incubated with 1 mM ATP and 5 mM MgCl2; also called SaUspA-Strep; SaUspA^WT; not shown: StrepII, C-terminal, kept
As to B1, the “stoichiometry N” value in data set [1] was 2.
